{"source": "patent US20240010678A1", "about": "“METHOD OF TREATMENT OF IRRITABLE BOWEL SYNDROME” (THE JOHNS HOPKINS UNIVERSITY, priority 2020, published 2024)", "key": {"mouse model of IBS": {"system": "mouse model of IBS", "experiment": "Visceromotor reflex (VMR) response to colorectal distention (CRD) in a mouse model of IBS", "format": "in vivo", "details": "graded colorectal distention, KSL-W given intracolonically (FIG. 1), rifaximin FIG. 2", "protocol": "Mouse pups at postnatal day 10 will receive a […] enema infusion with 0.5% acetic acid or saline. The pup will be gently held by hand with head down. A poly-ethylene tubing (PE-10) connected to a 100 ul Hamilton syringe is insert through the rectum into the distal colon about 1.5 cm from the anus. 20 μl of 0.5% acetic acid or saline is infused slowly (about second). The pups are put back with dam and wean at 3 weeks old. The mice are allowed to grow into adulthood (8-12 weeks) when they are ready for test of hypersensitivity (increased pain to graded painful stimulus).\nVisceromotor reflex (VMR) and Abdominal Withdrawal Reflex (AWR) response to colorectal distention (CRD) for assessing visceral pain sensitivity. The VMR is a reflex measured using an electromyographic (EMG) recording obtained from the external oblique muscle. […] Then, 30-45 min later, the VMR response to CRD is measured by EMG.\nProcedure of electrodes implantation: Under a cocktail of Ketamine/Xylazine (80:8 mg/kg body weight) or 1-2% isoflurane. adult mice undergo surgery to implant abdominal electrodes. The depth of anesthesia will be assessed by pinching the toes for a toe pinch response (negative) every 15 minutes during the surgical procedure. […]\nEMG response to CRD: EMG is recorded from two externalized electrodes implanted in the external oblique muscle by using CED 1401 plus and Spike 2 software. […]"}, "oral microorganisms": {"system": "oral microorganisms", "details": "U.S. Pat. Nos. 7,494,980 and 8,778,889; cited from earlier work"}, "[1]": {"system": "biofilms that mimic supragingival or cariogenic plaque", "details": "cited from earlier work"}, "pathogenic bacteria": {"system": "pathogenic bacteria", "experiment": "Selectivity of the antimicrobial peptide for pathogenic versus beneficial bacteria"}, "[2]": {"system": "microbial balance in the colon", "experiment": "Effect on microbial balance in the colon", "format": "in vivo", "details": "FIG. 1 cited", "protocol": "Using a novel comprehensive, high-density DNA microarray (PhyloChip) a phylogenetic analysis of the microbial community of the large bowel was performed. […] Even more striking was the dramatic change in the ratio of Firmicutes relative to Bacteroidetes, where “IBS” animals were enriched more with Bacteroidetes and also contained a different composition of species within this phylum."}}, "note": "“Also recorded” adds a separate entry of the source.", "data": [{"compound": "CO[C@H]1/C=C/O[C@@]2(C)Oc3c(C)c(O)c4c(O)c(c5c(nc6cc(C)ccn65)c4c3C2=O)NC(=O)/C(C)=C\\C=C\\[C@H](C)[C@H](O)[C@@H](C)[C@@H](O)[C@@H](C)[C@H](OC(C)=O)[C@@H]1C", "note": "[rifaximin, reference compound]", "values": [{"measurement": "pain behavior (VMR response to colorectal distention)", "setting": "mouse model of IBS", "value": "attenuates pain behavior"}]}, {"compound": "NH2-Lys-Lys-Val-Val-Phe-Lys-Val-Lys-Phe-Lys-CO NH2 (H-KKVVFKVKFK-NH2) [KSL, antimicrobial decapeptide]", "values": [{"measurement": "antibacterial activity / inhibition of growth of oral microorganisms", "setting": "oral microorganisms", "value": "possess a broad range of antibacterial activity; also recorded: inhibiting the growth of various oral microorganisms"}, {"measurement": "prevention of biofilm formation", "setting": "[1]", "value": "effective in preventing the formation of biofilms that mimic supragingival or cariogenic plaque"}]}, {"compound": "NH2-Lys-Lys-Val-Val-Phe-Trp-Val-Lys-Phe-Lys-CO NH2 (H-KKVVFWVKFK-NH2) [KSL-W, L-tryptophan analog of KSL; L-lysine at position six replaced with L-tryptophan]", "values": [{"measurement": "pain behavior (VMR response to colorectal distention)", "setting": "mouse model of IBS", "value": "attenuates pain behavior"}, {"measurement": "selectivity against pathogenic versus beneficial bacteria", "setting": "pathogenic bacteria", "value": "works against pathogenic bacteria but spares beneficial ones; also recorded: selective against pathogenic bacteria but not beneficial bacteria"}, {"measurement": "microbial balance in the colon", "setting": "[2]", "value": "resets the microbial balance in the colon"}]}]}
